Here are results for 16 compounds from US12583826B2, “[(1,5-diphenyl-1H-1,2,4-triazol-3-yl)oxy]acetic acid derivatives and salts thereof, crop protection compositions comprising them, methods for producing them and use thereof as safeners” (Bayer Aktiengesellschaft, priority 2019, dated 2026).

The test system of assay [1] is summer barley (HORVS; cv. Montoya). In words: Relative action (efficacy code): reduction of damage by mesosulfuron-methyl on summer barley. The class given is in vivo. Also noted: key: 0: no reduction in damage (appearance corresponding to the herbicide control); 1: slight reduction in damage; 2: distinct reduction in damage; 3: significant reduction in damage; 4: complete reduction in damage (appearance corresponding to the untreated control). The settings on record: then mesosulfuron-methyl 40-60 g/ha, visual, 9-13 days after application. The protocol:
2.4 Relative Action of Selected Compounds of the Invention Using the Example of Reduction of Damage by Mesosulfuron-Methyl on Summer Barley (HORVS) The seeds of the crop plants to be treated are laid out in sandy loam in plastic pots (diameter ˜4 cm), covered with soil and grown in a greenhouse under good conditions for germination and growth. The trial plants were treated at the early leaf stage (BBCH10—BBCH12). In the course of this, the inventive compounds of the general formula (I) formulated in the form of wettable powders (WP) were sprayed onto the above-ground parts of the plants as an aqueous suspension with a water application rate corresponding to 800 l/ha with addition of wetting agent (e.g. 0.2% Genapol-LRO or 0.2% Mero) in the specified dose. This was followed by the application of the herbicide. For this purpose, mesosulfuron-methyl, formulated in the form of water-dispersible granules (WG), was sprayed onto the above-ground parts of the plants in the form of an aqueous dispersion with a water application rate corresponding to 800 l/ha with addition of wetting agent (e.g. 0.2% Genapol-LRC) or 1 l/ha Biopower) in a dose of 40-60 g/ha. The dose of the herbicide was chosen here such that it causes visually apparent damage (min. 30%, max. 75%) compared to untreated crop plants at the evaluation time on a control group of crop plants without safener treatment that were included in the same trial. After application, the plants were cultivated under good growth conditions in a greenhouse. 9-13 days after application, the efficacy of the test compounds was assessed visually. For this purpose, the appearance of the plants treated with the test compound and herbicide was compared to the corresponding herbicide controls (without safener; with clearly visible damage) and the untreated controls (without damage). The damage-reducing effect of the test compounds was expressed here separately for 2 repeats in graded efficacy codes according to the following scheme: • 0: no reduction in damage (appearance corresponding to the herbicide control) • 1: slight reduction in damage • 2: distinct reduction in damage • 3: significant reduction in damage • 4: complete reduction in damage (appearance corresponding to the untreated control) The trials show clear efficacy of the substances of the invention with regard to the reduction in damage to the summer barley crop plant (HORVS; cv. Montoya) caused by the herbicide mesosulfuron-methyl: […]

Assay [2] relates to summer wheat (TRZAS; cv. Triso). The experiment in a line: Relative action (efficacy code): reduction of damage by mesosulfuron-methyl on summer wheat. The class given is in vivo. Also noted: key: 0: no reduction in damage (appearance corresponding to the herbicide control); 1: slight reduction in damage; 2: distinct reduction in damage; 3: significant reduction in damage; 4: complete reduction in damage (appearance corresponding to the untreated control). As to conditions: then mesosulfuron-methyl 40-60 g/ha, visual, 9-13 days after application. On the procedure: 2.3 Relative Action of Selected Compounds of the Invention Using the Example of Reduction of Damage by Mesosulfuron-Methyl on Summer Wheat (TRZAS) The seeds of the crop plants to be treated are laid out in sandy loam in plastic pots (diameter ˜4 cm), covered with soil and grown in a greenhouse under good conditions for germination and growth. The trial plants were treated at the early leaf stage (BBCH10—BBCH12). In the course of this, the inventive compounds of the general formula (I) formulated in the form of wettable powders (WP) were sprayed onto the above-ground parts of the plants as an aqueous suspension with a water application rate corresponding to 800 l/ha with addition of wetting agent (e.g. 0.2% Genapol-LRO or 0.2% Mero) in the specified dose. This was followed by the application of the herbicide. For this purpose, mesosulfuron-methyl, formulated in the form of water-dispersible granules (WG), was sprayed onto the above-ground parts of the plants in the form of an aqueous dispersion with a water application rate corresponding to 800 l/ha with addition of wetting agent (e.g. 0.2% Genapol-LRO or 1 l/ha Biopower) in a dose of 40-60 g/ha. The dose of the herbicide was chosen here such that it causes visually apparent damage (min. 30%, max. 75%) compared to untreated crop plants at the evaluation time on a control group of crop plants without safener treatment that were included in the same trial. After application, the plants were cultivated under good growth conditions in a greenhouse. 9-13 days after application, the efficacy of the test compounds was assessed visually. For this purpose, the appearance of the plants treated with the test compound and herbicide was compared to the corresponding herbicide controls (without safener; with clearly visible damage) and the untreated controls (without damage). The damage-reducing effect of the test compounds was expressed here in graded efficacy codes according to the following scheme: • 0: no reduction in damage (appearance corresponding to the herbicide control) • 1: slight reduction in damage • 2: distinct reduction in damage • 3: significant reduction in damage • 4: complete reduction in damage (appearance corresponding to the untreated control) The trials show clear efficacy of the substances of the invention with regard to the reduction in damage to the summer wheat crop plant (TRZAS; cv. Triso) caused by the herbicide mesosulfuron-methyl: […]

Setting [3] is: safener dose 100 (unit not given).
The mark [4] stands for this setting: safener dose 500 (unit not given).

For the compound `CCOC(=O)CCOC(=O)COc1nc(-c2ccc(F)cc2F)n(-c2ccc(Cl)cc2F)n1` [I.69-49], the “Efficacy of the safener (efficacy code)” value in assay [1] (safener 100 g/ha) and in assay [2] (setting [3]) was 2 in each case.

On to `COC(=O)COc1nc(-c2ccc(F)cc2F)n(-c2ccc(Cl)cc2F)n1` [I.40-49], for which the “Efficacy of the safener (efficacy code)” value in assay [1] (safener 100 g/ha), in assay [1] (safener 500 g/ha), in assay [2] (setting [3]) and in assay [2] (setting [4]) was 4 throughout.

With `COC(=O)COc1nc(-c2c(F)cccc2F)n(-c2ccc(Cl)cc2F)n1` [I.55-49], the “Efficacy of the safener (efficacy code)” value in assay [1] (safener 100 g/ha), in assay [1] (safener 500 g/ha), in assay [2] (setting [3]) and in assay [2] (setting [4]) was 2 each time.

`COC(=O)COc1nc(-c2ccc(F)cc2F)n(-c2ccc(F)cc2Cl)n1` [I.40-48]: the “Efficacy of the safener (efficacy code)” value in assay [1] (safener 100 g/ha) and in assay [2] (setting [3]) was 2 throughout.

Take `COC(=O)COc1nc(-c2ccc(F)cc2F)n(-c2ccc(Cl)cc2)n1` [I.40-7, Methyl {[1-(4-chlorophenyl)-5-(2,4-difluorophenyl)-1H-1,2,4-triazol-3-yl]oxy}acetate]: the “Efficacy of the safener (efficacy code)” value in assay [1] (safener 100 g/ha) is on record as 2; in assay [1] (safener 500 g/ha), 4; in assay [2] (setting [3]) it was 4; in assay [2] (setting [4]) it was 4.

As to `O=C(O)COc1nc(-c2c(F)cccc2F)n(-c2c(F)cccc2F)n1` [I.57-43], the “Efficacy of the safener (efficacy code)” value in assay [1] (safener 500 g/ha) and in assay [2] (setting [4]) was 2 throughout.

Take `COCCOC(=O)COc1nc(-c2ccc(F)cc2F)n(-c2ccc(F)cc2Cl)n1` [I.67-48]: the “Efficacy of the safener (efficacy code)” value in assay [1] (safener 100 g/ha) and in assay [2] (setting [3]) was 2 each time.

As for `O=C(O)COc1nc(-c2ccccc2)n(-c2c(F)cccc2F)n1` [I.3-43], the “Efficacy of the safener (efficacy code)” value in assay [1] (safener 100 g/ha), in assay [1] (safener 500 g/ha), in assay [2] (setting [3]) and in assay [2] (setting [4]) was 2 each time.

In the case of `CCOC(=O)COc1nc(-c2ccc(F)cc2F)n(-c2ccc(Cl)cc2F)n1` [I.41-49], the “Efficacy of the safener (efficacy code)” value in assay [1] (safener 100 g/ha) and in assay [2] (setting [3]) was 2 throughout.

Regarding `CCCCOC(=O)COc1nc(-c2ccc(F)cc2F)n(-c2ccc(Cl)cc2F)n1` [I.66-49], the “Efficacy of the safener (efficacy code)” value in assay [1] (safener 100 g/ha) and in assay [2] (setting [3]) was 2 throughout.

`COC(=O)CCOC(=O)COc1nc(-c2ccc(Cl)cc2Cl)n(-c2ccc(Cl)cc2F)n1` [I.61-49, Methyl 3-(2-{[1-(4-chloro-2-fluorophenyl)-5-(2,4-dichlorophenyl)-1H-1,2,4-triazol-3-yl]oxy}acetoxy)propanoate]: the “Efficacy of the safener (efficacy code)” value in assay [1] (safener 100 g/ha) and in assay [2] (setting [3]) was 2 in each case.

With `O=C(O)COc1nc(-c2ccc(Cl)cc2F)n(-c2c(F)cccc2F)n1` [I.48-43], the “Efficacy of the safener (efficacy code)” value in assay [1] (safener 500 g/ha) and in assay [2] (setting [4]) was 2 throughout.

With `O=C(COc1nc(-c2ccc(F)cc2F)n(-c2ccc(Cl)cc2F)n1)OCC1CCOC1` (stereo not shown) [I.63-49], the “Efficacy of the safener (efficacy code)” value in assay [1] (safener 100 g/ha) and in assay [2] (setting [3]) was 2 throughout.

Regarding `COCCOC(=O)COc1nc(-c2ccc(F)cc2F)n(-c2ccc(Cl)cc2F)n1` [I.67-49], the “Efficacy of the safener (efficacy code)” value in assay [1] (safener 100 g/ha), in assay [1] (safener 500 g/ha), in assay [2] (setting [3]) and in assay [2] (setting [4]) was 2 in each case.

Consider `O=C(O)COc1nc(-c2ccc(F)cc2F)n(-c2c(F)cccc2F)n1` [I.42-43], for which the “Efficacy of the safener (efficacy code)” value in assay [1] (safener 100 g/ha), in assay [1] (safener 500 g/ha), in assay [2] (setting [3]) and in assay [2] (setting [4]) was 2 each time.

Take `O=C(O)COc1nc(-c2ccc(F)cc2F)n(-c2ccc(Cl)cc2F)n1` [I.42-49]: the “Efficacy of the safener (efficacy code)” value in assay [1] (safener 100 g/ha) is 2; in assay [1] (safener 500 g/ha) it was 3; in assay [2] (setting [3]), 2; in assay [2] (setting [4]) it was 2.
